Assay results as given in PMC7265341, “Quantifying CDK inhibitor selectivity in live cells” (Nature Communications, 2020).
Where two headings read alike, the source gives them in different places.

Tests used:
CDK14/Cyclin Y = CDK14/Cyclin Y (Homo sapiens, UniProt O94921); test: NanoBRET live-cell target engagement, CDK14-NanoLuc/Cyclin Y in HEK-293; assay type: binding; details: CDK14/Y, read-out: Inhibition at 10µM (%)
CDK10/Cyclin L2 = CDK10/Cyclin L2 (Homo sapiens, UniProt Q15131); test: NanoBRET live-cell target engagement, CDK10-NanoLuc/Cyclin L2 in HEK-293; details: read-out: Inhibition at 10µM (%), CDK10/L2
CDK19/Cyclin C = CDK19/Cyclin C (Homo sapiens, UniProt Q9BWU1); test: NanoBRET live-cell target engagement, NanoLuc-CDK19/Cyclin C in HEK-293; details: read-out: Inhibition at 10µM (%), CDK19/C
CDK20/Cyclin H = CDK20/Cyclin H (Homo sapiens, UniProt Q8IZL9); test: NanoBRET live-cell target engagement, NanoLuc-CDK20/Cyclin H in HEK-293; assay type: binding; details: CDK20/H, read-out: Inhibition at 10µM (%)
CDK4/Cyclin D1 = CDK4/Cyclin D1 (Homo sapiens, UniProt P11802); test: NanoBRET live-cell target engagement, NanoLuc-CDK4/Cyclin D1 in HEK-293; assay type: binding; details: CDK4/D1, read-out: Inhibition at 10µM (%)
CDK2/Cyclin E1 = CDK2/Cyclin E1 (Homo sapiens, UniProt P24941); test: NanoBRET live-cell target engagement, CDK2-NanoLuc/Cyclin E1 in HEK-293; assay type: binding; details: CDK2/E1, read-out: Inhibition at 10µM (%)
CDK16/Cyclin Y = CDK16/Cyclin Y (Homo sapiens, UniProt Q00536); test: NanoBRET live-cell target engagement, CDK16-NanoLuc/Cyclin Y in HEK-293; assay type: binding; details: CDK16/Y; for IC50: read-out: IC50; for inhibition at 10 µM: read-out: Inhibition at 10µM (%)
CDK1/Cyclin E1 = CDK1/Cyclin E1 (Homo sapiens, UniProt P06493); test: NanoBRET live-cell target engagement, CDK1-NanoLuc/Cyclin E1 in HEK-293; assay type: binding; details: CDK1/E1, read-out: Inhibition at 10µM (%)
CDK15/Cyclin Y = CDK15/Cyclin Y (Homo sapiens, UniProt Q96Q40); test: NanoBRET live-cell target engagement, NanoLuc-CDK15/Cyclin Y in HEK-293; assay type: binding; details: CDK15/Y; for IC50: read-out: IC50; for inhibition at 10 µM: read-out: Inhibition at 10µM (%)
CDK17/Cyclin Y = CDK17/Cyclin Y (Homo sapiens, UniProt Q00537); test: NanoBRET live-cell target engagement, CDK17-NanoLuc/Cyclin Y in HEK-293; assay type: binding; details: CDK17/Y, read-out: Inhibition at 10µM (%)
CDK7 = CDK7 (Homo sapiens, UniProt P50613); test: NanoBRET live-cell target engagement, NanoLuc-CDK7 in HEK-293; assay type: binding; details: CDK7, read-out: Inhibition at 10µM (%)
CDK8/Cyclin C = CDK8/Cyclin C (Homo sapiens, UniProt P49336); test: NanoBRET live-cell target engagement, NanoLuc-CDK8/Cyclin C in HEK-293; assay type: binding; details: CDK8/C, read-out: Inhibition at 10µM (%)
CDK11A/Cyclin L2 = biological target: T1, CDK11A/Cyclin L2 (Homo sapiens, UniProt Q9UQ88); test: NanoBRET live-cell target engagement, CDK11A-NanoLuc/Cyclin L2 in HEK-293; assay type: binding; details: CDK11a/L2, read-out: Inhibition at 10µM (%)
T1 sequence (Q9UQ88 1-783): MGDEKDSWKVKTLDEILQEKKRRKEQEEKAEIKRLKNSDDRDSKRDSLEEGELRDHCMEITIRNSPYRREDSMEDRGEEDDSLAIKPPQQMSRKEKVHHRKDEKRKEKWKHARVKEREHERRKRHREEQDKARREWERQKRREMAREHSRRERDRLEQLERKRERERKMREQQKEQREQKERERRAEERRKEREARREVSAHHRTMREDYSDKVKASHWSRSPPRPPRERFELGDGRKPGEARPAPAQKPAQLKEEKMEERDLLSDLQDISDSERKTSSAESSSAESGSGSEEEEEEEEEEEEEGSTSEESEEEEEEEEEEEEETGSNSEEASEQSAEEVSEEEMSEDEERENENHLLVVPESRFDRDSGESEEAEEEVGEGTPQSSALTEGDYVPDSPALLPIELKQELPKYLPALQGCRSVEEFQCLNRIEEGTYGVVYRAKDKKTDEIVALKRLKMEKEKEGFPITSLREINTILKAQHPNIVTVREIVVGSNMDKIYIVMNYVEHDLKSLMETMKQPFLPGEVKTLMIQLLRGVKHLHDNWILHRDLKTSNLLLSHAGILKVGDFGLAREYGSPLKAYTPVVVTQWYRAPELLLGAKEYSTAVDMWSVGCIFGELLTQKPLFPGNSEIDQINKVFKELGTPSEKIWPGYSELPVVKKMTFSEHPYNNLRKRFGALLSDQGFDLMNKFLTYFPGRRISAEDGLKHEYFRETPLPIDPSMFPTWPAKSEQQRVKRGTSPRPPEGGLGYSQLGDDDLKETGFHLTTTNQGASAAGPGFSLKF

CDK9/Cyclin K = CDK9/Cyclin K (Homo sapiens, UniProt P50750); test: NanoBRET live-cell target engagement, NanoLuc-CDK9/Cyclin K in HEK-293; assay type: binding; details: CDK9/K, read-out: Inhibition at 10µM (%)
CDK6/Cyclin D1 = CDK6/Cyclin D1 (Homo sapiens, UniProt Q00534); test: NanoBRET live-cell target engagement, NanoLuc-CDK6/Cyclin D1 in HEK-293; assay type: binding; details: for inhibition at 10 µM: read-out: Inhibition at 10µM (%)
CDK13/Cyclin K = CDK13/Cyclin K (Homo sapiens, UniProt Q14004); test: NanoBRET live-cell target engagement, CDK13-NanoLuc/Cyclin K in HEK-293; assay type: binding; details: CDK13/K, read-out: Inhibition at 10µM (%)
CDK18/Cyclin Y = CDK18/Cyclin Y (Homo sapiens, UniProt Q07002); test: NanoBRET live-cell target engagement, CDK18-NanoLuc/Cyclin Y in HEK-293; assay type: binding; details: CDK18/Y, read-out: Inhibition at 10µM (%)
CDK11B/Cyclin L2 = CDK11B/Cyclin L2 (Homo sapiens, UniProt P21127); test: NanoBRET live-cell target engagement, CDK11B-NanoLuc/Cyclin L2 in HEK-293; assay type: binding; details: CDK11b/L2, read-out: Inhibition at 10µM (%)
CDK5/CDK5R1 = CDK5/CDK5R1 (Homo sapiens, UniProt Q00535); test: NanoBRET live-cell target engagement, CDK5-NanoLuc/CDK5R1 in HEK-293; assay type: binding; details: CDK5/CDK5R1, read-out: Inhibition at 10µM (%)

CDK7, sequence (P50613 whole entry): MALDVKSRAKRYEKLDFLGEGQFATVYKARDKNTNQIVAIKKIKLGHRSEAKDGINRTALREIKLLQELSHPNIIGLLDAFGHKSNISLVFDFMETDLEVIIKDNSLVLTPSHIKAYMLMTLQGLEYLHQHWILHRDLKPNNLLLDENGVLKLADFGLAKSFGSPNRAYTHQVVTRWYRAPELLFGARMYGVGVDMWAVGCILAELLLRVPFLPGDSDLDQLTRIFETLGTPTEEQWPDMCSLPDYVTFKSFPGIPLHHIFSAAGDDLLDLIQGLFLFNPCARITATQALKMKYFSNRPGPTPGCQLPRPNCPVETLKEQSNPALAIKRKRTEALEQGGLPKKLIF
CDK16/Cyclin Y, sequence (Q00536 whole entry): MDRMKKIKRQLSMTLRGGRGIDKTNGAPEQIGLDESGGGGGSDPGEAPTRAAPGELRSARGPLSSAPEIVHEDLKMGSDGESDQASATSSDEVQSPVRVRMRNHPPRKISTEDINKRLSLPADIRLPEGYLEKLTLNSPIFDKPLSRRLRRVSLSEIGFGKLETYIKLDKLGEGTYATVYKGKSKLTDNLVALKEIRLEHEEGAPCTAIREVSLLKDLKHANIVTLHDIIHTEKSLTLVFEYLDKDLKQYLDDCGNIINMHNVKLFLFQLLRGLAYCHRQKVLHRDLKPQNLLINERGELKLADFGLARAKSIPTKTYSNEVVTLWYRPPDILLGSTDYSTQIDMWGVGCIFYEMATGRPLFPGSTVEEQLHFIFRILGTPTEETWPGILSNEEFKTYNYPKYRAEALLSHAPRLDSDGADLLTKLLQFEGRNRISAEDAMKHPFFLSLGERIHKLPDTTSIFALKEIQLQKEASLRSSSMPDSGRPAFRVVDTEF
CDK16/Cyclin Y, sequence (Q8ND76 whole entry partner): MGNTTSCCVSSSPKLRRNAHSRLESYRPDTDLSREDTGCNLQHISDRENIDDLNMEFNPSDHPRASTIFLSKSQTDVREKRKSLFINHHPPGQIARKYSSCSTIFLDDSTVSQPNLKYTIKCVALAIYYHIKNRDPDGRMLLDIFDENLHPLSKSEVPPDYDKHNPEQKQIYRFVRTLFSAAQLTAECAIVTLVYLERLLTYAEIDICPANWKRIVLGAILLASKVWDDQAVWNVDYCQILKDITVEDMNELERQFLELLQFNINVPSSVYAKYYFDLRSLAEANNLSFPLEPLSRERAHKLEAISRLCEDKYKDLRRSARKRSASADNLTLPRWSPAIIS
CDK15/Cyclin Y, sequence (Q96Q40 whole entry): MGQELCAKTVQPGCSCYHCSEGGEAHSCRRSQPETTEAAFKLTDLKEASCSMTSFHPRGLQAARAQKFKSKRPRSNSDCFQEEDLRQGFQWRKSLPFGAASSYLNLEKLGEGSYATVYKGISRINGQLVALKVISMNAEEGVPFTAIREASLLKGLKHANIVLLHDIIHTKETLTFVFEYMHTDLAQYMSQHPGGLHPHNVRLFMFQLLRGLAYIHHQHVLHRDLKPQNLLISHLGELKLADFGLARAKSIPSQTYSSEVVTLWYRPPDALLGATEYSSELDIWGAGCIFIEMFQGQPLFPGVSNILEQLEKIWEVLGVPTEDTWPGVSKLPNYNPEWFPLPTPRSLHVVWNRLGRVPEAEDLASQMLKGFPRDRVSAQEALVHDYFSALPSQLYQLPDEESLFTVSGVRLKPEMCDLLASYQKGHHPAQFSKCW
CDK15/Cyclin Y, sequence (Q8ND76 whole entry partner): as the sequence (Q8ND76 whole entry partner) above
CDK1/Cyclin E1, sequence (P06493 whole entry): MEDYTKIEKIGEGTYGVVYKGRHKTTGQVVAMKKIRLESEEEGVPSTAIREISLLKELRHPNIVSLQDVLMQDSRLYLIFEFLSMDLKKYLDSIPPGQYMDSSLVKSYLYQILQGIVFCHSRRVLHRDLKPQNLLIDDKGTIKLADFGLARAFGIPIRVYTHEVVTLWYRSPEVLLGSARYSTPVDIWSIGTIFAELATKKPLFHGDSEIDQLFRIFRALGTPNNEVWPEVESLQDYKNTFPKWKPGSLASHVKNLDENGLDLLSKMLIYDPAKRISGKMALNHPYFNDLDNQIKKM
CDK1/Cyclin E1, sequence (P24864 whole entry partner): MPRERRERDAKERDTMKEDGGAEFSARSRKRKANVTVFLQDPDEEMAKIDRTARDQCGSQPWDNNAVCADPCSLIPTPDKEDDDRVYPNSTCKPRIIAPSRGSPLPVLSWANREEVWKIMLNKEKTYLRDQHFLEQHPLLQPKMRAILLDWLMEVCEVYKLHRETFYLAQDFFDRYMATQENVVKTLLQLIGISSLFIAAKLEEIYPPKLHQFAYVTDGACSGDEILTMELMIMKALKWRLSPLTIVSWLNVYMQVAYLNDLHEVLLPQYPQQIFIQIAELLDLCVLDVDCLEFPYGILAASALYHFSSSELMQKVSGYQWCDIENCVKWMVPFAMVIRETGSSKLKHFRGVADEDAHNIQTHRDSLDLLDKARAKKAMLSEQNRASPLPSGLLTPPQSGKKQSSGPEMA
CDK13/Cyclin K, sequence (O75909 whole entry): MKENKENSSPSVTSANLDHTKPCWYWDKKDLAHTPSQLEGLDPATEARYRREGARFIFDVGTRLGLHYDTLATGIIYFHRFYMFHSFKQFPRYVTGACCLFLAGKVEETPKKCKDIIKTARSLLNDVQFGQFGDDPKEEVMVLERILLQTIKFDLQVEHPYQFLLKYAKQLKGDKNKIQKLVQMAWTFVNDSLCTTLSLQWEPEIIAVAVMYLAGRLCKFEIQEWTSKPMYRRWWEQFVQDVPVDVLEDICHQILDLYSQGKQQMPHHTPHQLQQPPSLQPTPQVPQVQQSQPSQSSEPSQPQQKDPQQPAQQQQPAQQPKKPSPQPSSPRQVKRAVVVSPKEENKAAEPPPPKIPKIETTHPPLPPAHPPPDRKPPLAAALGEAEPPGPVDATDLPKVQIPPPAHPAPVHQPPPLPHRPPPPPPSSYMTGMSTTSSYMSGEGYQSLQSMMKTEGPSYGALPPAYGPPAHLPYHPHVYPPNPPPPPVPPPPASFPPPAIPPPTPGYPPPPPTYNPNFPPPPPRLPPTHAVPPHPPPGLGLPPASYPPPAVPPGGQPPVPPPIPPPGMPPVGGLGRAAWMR
CDK13/Cyclin K, sequence (Q14004 other isoform, or with tags, fused parts or gaps): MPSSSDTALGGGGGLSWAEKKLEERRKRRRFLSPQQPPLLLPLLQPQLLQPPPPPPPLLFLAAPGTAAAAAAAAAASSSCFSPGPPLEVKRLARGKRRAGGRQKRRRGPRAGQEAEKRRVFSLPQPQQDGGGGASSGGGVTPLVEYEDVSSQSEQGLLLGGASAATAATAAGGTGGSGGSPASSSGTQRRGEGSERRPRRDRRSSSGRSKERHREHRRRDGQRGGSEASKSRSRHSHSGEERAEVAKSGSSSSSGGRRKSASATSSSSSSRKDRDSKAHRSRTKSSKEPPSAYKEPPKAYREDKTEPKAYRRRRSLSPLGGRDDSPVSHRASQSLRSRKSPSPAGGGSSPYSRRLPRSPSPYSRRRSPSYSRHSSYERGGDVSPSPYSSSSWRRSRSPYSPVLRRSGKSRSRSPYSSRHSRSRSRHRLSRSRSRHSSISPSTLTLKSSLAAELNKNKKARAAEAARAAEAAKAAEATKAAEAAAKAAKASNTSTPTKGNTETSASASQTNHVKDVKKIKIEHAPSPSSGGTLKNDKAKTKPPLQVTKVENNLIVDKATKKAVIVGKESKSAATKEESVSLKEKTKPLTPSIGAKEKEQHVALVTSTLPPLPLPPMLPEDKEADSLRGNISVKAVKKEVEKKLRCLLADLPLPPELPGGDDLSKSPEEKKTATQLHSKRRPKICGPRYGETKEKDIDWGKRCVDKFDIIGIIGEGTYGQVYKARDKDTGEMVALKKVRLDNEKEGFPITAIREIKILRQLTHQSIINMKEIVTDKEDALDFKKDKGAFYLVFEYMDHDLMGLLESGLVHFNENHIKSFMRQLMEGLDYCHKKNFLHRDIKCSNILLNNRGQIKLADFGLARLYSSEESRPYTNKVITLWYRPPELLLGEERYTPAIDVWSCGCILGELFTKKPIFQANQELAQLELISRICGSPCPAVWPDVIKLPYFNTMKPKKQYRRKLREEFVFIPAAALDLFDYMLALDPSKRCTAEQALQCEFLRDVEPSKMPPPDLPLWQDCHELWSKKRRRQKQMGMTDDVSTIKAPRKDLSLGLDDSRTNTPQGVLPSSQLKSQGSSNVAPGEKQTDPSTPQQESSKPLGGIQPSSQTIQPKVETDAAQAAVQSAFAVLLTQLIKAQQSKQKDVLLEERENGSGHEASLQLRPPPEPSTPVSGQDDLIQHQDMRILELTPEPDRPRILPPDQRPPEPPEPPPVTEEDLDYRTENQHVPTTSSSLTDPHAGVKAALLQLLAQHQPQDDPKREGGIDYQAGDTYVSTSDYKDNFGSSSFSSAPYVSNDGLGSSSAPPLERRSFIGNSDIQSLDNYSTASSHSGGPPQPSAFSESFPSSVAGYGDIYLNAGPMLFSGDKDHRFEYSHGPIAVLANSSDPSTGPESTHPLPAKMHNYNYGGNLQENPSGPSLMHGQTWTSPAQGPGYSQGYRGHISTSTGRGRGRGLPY
CDK10/Cyclin L2, sequence (Q15131 whole entry): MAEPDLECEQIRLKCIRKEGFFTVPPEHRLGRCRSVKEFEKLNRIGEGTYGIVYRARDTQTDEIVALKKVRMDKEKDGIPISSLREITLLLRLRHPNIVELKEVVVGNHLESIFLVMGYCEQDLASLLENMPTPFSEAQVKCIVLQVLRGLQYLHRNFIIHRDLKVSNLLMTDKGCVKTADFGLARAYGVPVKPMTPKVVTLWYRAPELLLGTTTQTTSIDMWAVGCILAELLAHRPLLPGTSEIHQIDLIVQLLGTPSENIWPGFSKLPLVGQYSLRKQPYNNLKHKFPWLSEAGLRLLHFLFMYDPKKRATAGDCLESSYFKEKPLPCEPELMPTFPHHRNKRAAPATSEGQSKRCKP

With `CNC(=O)c1nn(C)c2c1C(C)(C)Cc1cnc(Nc3ccc(N4CCN(C)CC4)cc3)nc1-2` [Milciclib] the inhibition at 10 µM (CDK14/Cyclin Y; average) was 74.3%, the inhibition at 10 µM (CDK14/Cyclin Y; experiment 1) was 71.9% and the inhibition at 10 µM (CDK14/Cyclin Y; experiment 2) was 76.8%. The inhibition at 10 µM (CDK10/Cyclin L2; average) was 30.6%, the inhibition at 10 µM (CDK10/Cyclin L2; experiment 1) was 32.3% and the inhibition at 10 µM (CDK10/Cyclin L2; experiment 2) was 28.9%. It also gave an inhibition at 10 µM (CDK19/Cyclin C; average) of 19.2%, an inhibition at 10 µM (CDK19/Cyclin C; experiment 1) of 44.9% and an inhibition at 10 µM (CDK19/Cyclin C; experiment 2) of -6.6%. The inhibition at 10 µM (CDK20/Cyclin H; experiment 1) was 50.1%, the inhibition at 10 µM (CDK20/Cyclin H; experiment 2) was 36.3% and the inhibition at 10 µM (CDK4/Cyclin D1; average) was 98.1%. For the same compound, the inhibition at 10 µM (CDK4/Cyclin D1; experiment 1) was 98.8%, the inhibition at 10 µM (CDK4/Cyclin D1; experiment 2) was 97.4% and the inhibition at 10 µM (CDK2/Cyclin E1; average) was 76.6%. The inhibition at 10 µM (CDK2/Cyclin E1; experiment 1) was 75.5%, the inhibition at 10 µM (CDK2/Cyclin E1; experiment 2) was 77.7% and the IC50 (CDK16/Cyclin Y; average (± SEM where n=3)) was 300 ± 40 nM. The IC50 (CDK16/Cyclin Y; experiment 1) was 383 nM, the inhibition at 10 µM (CDK16/Cyclin Y; experiment 1) was 86.4% and the IC50 (CDK16/Cyclin Y; experiment 2) was 260 nM. The inhibition at 10 µM (CDK16/Cyclin Y; experiment 2) was 90.1%, the IC50 (CDK16/Cyclin Y; experiment 3) was 273 nM and the inhibition at 10 µM (CDK1/Cyclin E1; average) was 61.1%. For the same compound, the inhibition at 10 µM (CDK1/Cyclin E1; experiment 1) was 52.9%, the inhibition at 10 µM (CDK1/Cyclin E1; experiment 2) was 69.2% and the IC50 (CDK15/Cyclin Y; average (± SEM where n=3)) was 880 ± 60 nM. It also gave an inhibition at 10 µM (CDK15/Cyclin Y; average) of 86%, an IC50 (CDK15/Cyclin Y; experiment 1) of 970 nM and an inhibition at 10 µM (CDK15/Cyclin Y; experiment 1) of 83.8%. It also gave an IC50 (CDK15/Cyclin Y; experiment 2) of 898 nM, an inhibition at 10 µM (CDK15/Cyclin Y; experiment 2) of 88.1% and an IC50 (CDK15/Cyclin Y; experiment 3) of 778 nM. It also gave an inhibition at 10 µM (CDK17/Cyclin Y; average) of 87.8%, an inhibition at 10 µM (CDK17/Cyclin Y; experiment 1) of 86.7% and an inhibition at 10 µM (CDK17/Cyclin Y; experiment 2) of 88.9%. The inhibition at 10 µM (CDK7; average) was 92.1%, the inhibition at 10 µM (CDK7; experiment 1) was 89.4% and the inhibition at 10 µM (CDK7; experiment 2) was 94.8%. For the same compound, the inhibition at 10 µM (CDK8/Cyclin C; average) was 16%, the inhibition at 10 µM (CDK8/Cyclin C; experiment 1) was 44.2% and the inhibition at 10 µM (CDK8/Cyclin C; experiment 2) was -12.1%. For the same compound, the inhibition at 10 µM (CDK11A/Cyclin L2; average) was 22.7%, the inhibition at 10 µM (CDK11A/Cyclin L2; experiment 1) was 20.3% and the inhibition at 10 µM (CDK11A/Cyclin L2; experiment 2) was 25%. For the same compound, the inhibition at 10 µM (CDK9/Cyclin K; average) was 55.3%, the inhibition at 10 µM (CDK9/Cyclin K; experiment 1) was 50.1% and the inhibition at 10 µM (CDK9/Cyclin K; experiment 2) was 60.5%. It also gave an IC50 (CDK6/Cyclin D1; CDK6/D1, average (± SEM where n=3), read-out: IC50) of 110 ± 20 nM, an inhibition at 10 µM (CDK6/Cyclin D1; CDK6/D1, average) of 96.3% and an IC50 (CDK6/Cyclin D1; CDK6/D1, experiment 1, read-out: IC50) of 110 nM. It also gave an inhibition at 10 µM (CDK6/Cyclin D1; CDK6/D1, experiment 1) of 96.1%, an IC50 (CDK6/Cyclin D1; CDK6/D1, experiment 2, read-out: IC50) of 83 nM and an inhibition at 10 µM (CDK6/Cyclin D1; CDK6/D1, experiment 2) of 96.5%. For the same compound, the IC50 (CDK6/Cyclin D1; CDK6/D1, experiment 3, read-out: IC50) was 144 nM, the IC50 (CDK6/Cyclin D1; live HEK-293, 2 h, mean ± S.E.M. (n=3) or mean (n=2), read-out: IC50 for CDK/cyclin complexes, CDK6/D1) was 110 ± 20 nM and the inhibition at 10 µM (CDK13/Cyclin K; average) was 13.7%. For the same compound, the inhibition at 10 µM (CDK13/Cyclin K; experiment 1) was 15%, the inhibition at 10 µM (CDK13/Cyclin K; experiment 2) was 12.5% and the inhibition at 10 µM (CDK18/Cyclin Y; average) was 84.2%. It also gave an inhibition at 10 µM (CDK18/Cyclin Y; experiment 1) of 83.1%, an inhibition at 10 µM (CDK18/Cyclin Y; experiment 2) of 85.3% and an inhibition at 10 µM (CDK11B/Cyclin L2; average) of 14.4%. For the same compound, the inhibition at 10 µM (CDK11B/Cyclin L2; experiment 1) was 14.6%, the inhibition at 10 µM (CDK11B/Cyclin L2; experiment 2) was 14.3% and the inhibition at 10 µM (CDK5/CDK5R1; average) was 82.1%. It also gave an inhibition at 10 µM (CDK5/CDK5R1; experiment 1) of 77.8% and an inhibition at 10 µM (CDK5/CDK5R1; experiment 2) of 86.4%.
